Experimental findings from PMC5908784, “Extracellular loops 2 and 3 of the calcitonin receptor selectively modify agonist binding and efficacy” (Biochemical Pharmacology, 2018) are described below.

Common to all, as to assay type: cell-based
One experiment deals with T1, hCTR W361A (Homo sapiens, UniProt P30988, W361A).
T1 construct: expressed in transfected cells
T1 sequence (P30988 25-474 W361A): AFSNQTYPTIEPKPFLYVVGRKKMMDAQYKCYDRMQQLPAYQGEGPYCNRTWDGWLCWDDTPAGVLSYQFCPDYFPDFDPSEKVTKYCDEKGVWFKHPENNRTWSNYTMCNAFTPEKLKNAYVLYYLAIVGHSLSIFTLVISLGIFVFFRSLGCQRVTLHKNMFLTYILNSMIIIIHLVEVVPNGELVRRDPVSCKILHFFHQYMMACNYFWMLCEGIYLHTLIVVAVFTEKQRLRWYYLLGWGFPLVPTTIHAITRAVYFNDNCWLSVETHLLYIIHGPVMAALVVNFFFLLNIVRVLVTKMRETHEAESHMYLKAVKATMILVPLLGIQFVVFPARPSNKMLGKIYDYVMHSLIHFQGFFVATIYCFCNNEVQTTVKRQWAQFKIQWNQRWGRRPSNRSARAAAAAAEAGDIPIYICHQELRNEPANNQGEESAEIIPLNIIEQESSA
In words: ERK1/2 phosphorylation. The note with it: for Emax: read-out: Emax (% WT); for EC50: pERK, three-parameter logistic fit. How it is done: (§1) Cells (2.5 × 10^4 cells/well) were seeded into 96-well culture plates and incubated overnight. […] Data were normalized to the maximal response elicited by 10% FBS determined at 6 min.
(§2) Data were corrected for radioligand occupancy using the Cheng-Prusoff equation in Prism; as such data are reported as pKi. Emax and EC50 were estimated from concentration-response curves using with a 3-parameter logistic equation in Prism (v7). These values are a composite of functional affinity, efficacy and stimulus response coupling. […] Significance was accepted at P < 0.05.

The target in a further experiment is T2, hCTR P363A (Homo sapiens, UniProt P30988, P363A).
T2 construct: expressed in transfected cells
T2 sequence (P30988 25-474 P363A): T1 sequence (P30988 25-474 W361A) with A337W, P339A
In words: ERK1/2 phosphorylation. The note with it: CV1-FlpIn cells, mean ± S.E.M.; for Emax: pERK maximal response. How it is done:
as §1, §2

The target in the next experiment is T3, hCTR C289A (Homo sapiens, UniProt P30988, C289A).
T3 construct: c-Myc (N); expressed in transfected cells
T3 sequence (P30988 25-474 C289A): T1 sequence (P30988 25-474 W361A) with C265A, A337W
Nature of the experiment: ERK1/2 phosphorylation. The note with it: CV1-FlpIn cells, mean ± S.E.M.; for Emax: pERK maximal response. The procedure: as §1, §2

The target of another experiment is T4, hCTR R281A (Homo sapiens, UniProt P30988, R281A).
T4 construct: expressed in transfected cells
T4 sequence (P30988 25-474 R281A): T1 sequence (P30988 25-474 W361A) with R257A, A337W
Nature of the experiment: cAMP accumulation. The note with it: mean ± S.E.M.; for Emax: cAMP maximal response, SEM; for EC50: cAMP, CV1-FlpIn cells, 30 min, IBMX. An outline of the steps:
(§3)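 Plated cells were incubated overnight and then challenged with rising ligand concentrations for 30 min alongside IBMX. Medium was replaced by absolute ethanol, which was evaporated at room temperature before cAMP determination. Values are normalized to 100 μM forskolin.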
(In general: cAMP levels reflect the balance of adenylyl cyclase and phosphodiesterase activity.)

Another experiment concerns the target T5, hCTR N365A (Homo sapiens, UniProt P30988, N365A).
T5 construct: c-Myc (N); expressed in transfected cells
T5 sequence (P30988 25-474 N365A): T1 sequence (P30988 25-474 W361A) with A337W, N341A
Nature of the experiment: cAMP accumulation. The note with it: mean ± S.E.M.; for Emax: cAMP maximal response, SEM; for EC50: cAMP, CV1-FlpIn cells, 30 min, IBMX. An outline of the steps: as §3

The mark [1] stands for this setting: pERK maximal response, hCTR W361A, CV1-FlpIn cells, mean ± S.E.M.
The mark [2] stands for this setting: hCTR W361A, CV1-FlpIn cells, mean ± S.E.M.
Where [3] appears, read: pERK, three-parameter logistic fit.

SMILES strings stand for the structures. Changes are numbered by the printed parent chain. Read-outs that look alike come from different tables or passages of the source. Where a SMILES comes first, the peptide text is derived from it. Bridges are numbered along the chain shown (N, C = ends).

For `CC(C)C[C@H](NC(=O)[C@H](CCCCN)NC(=O)CNC(=O)[C@H](CC(C)C)NC(=O)[C@@H](NC(=O)[C@@H]1CSSC[C@H](N)C(=O)N[C@@H](CO)C(=O)N[C@@H](CC(N)=O)C(=O)N[C@@H](CC(C)C)C(=O)N[C@@H](CO)C(=O)N[C@@H]([C@@H](C)O)C(=O)N1)C(C)C)C(=O)N[C@@H](CO)C(=O)N[C@@H](CCC(N)=O)C(=O)N[C@@H](CCC(=O)O)C(=O)N[C@@H](CC(C)C)C(=O)N[C@@H](Cc1c[nH]cn1)C(=O)N[C@@H](CCCCN)C(=O)N[C@@H](CC(C)C)C(=O)N[C@@H](CCC(N)=O)C(=O)N[C@H](C(=O)N[C@@H](Cc1ccc(O)cc1)C(=O)N1CCC[C@H]1C(=O)N[C@@H](CCCNC(=N)N)C(=O)N[C@H](C(=O)N[C@@H](CC(N)=O)C(=O)N[C@H](C(=O)NCC(=O)N[C@@H](CO)C(=O)NCC(=O)N[C@H](C(=O)N1CCC[C@H]1C(N)=O)[C@@H](C)O)[C@@H](C)O)[C@@H](C)O)[C@@H](C)O` [sCT], the Emax – broadly, the maximal effect, on the per cent scale that the assay sets – came out at 125 ± 5% at hCTR W361A; 95 ± 5% on hCTR P363A; 64 ± 11% on hCTR C289A; 119 ± 5% at hCTR R281A; 94 ± 5% on hCTR N365A.
`CSCC[C@H](NC(=O)CNC(=O)[C@H](CO)NC(=O)[C@H](Cc1ccccc1)NC(=O)[C@H](CCCNC(=N)N)NC(=O)[C@H](Cc1c[nH]cn1)NC(=O)[C@H](Cc1ccccc1)NC(=O)[C@H](CC(N)=O)NC(=O)[C@H](CC(N)=O)NC(=O)[C@H](CC(C)C)NC(=O)[C@H](CC(N)=O)NC(=O)[C@H](CCCNC(=N)N)NC(=O)[C@H](Cc1c[nH]c2ccccc12)NC(=O)[C@H](Cc1ccc(O)cc1)NC(=O)[C@H](C)NC(=O)[C@H](CO)NC(=O)[C@H](CC(C)C)NC(=O)[C@@H](NC(=O)[C@@H]1CSSC[C@H](N)C(=O)N[C@@H](CO)C(=O)N[C@@H](CC(N)=O)C(=O)N[C@@H](CC(C)C)C(=O)N[C@@H](CO)C(=O)N[C@@H]([C@@H](C)O)C(=O)N1)C(C)C)C(=O)NCC(=O)N[C@@H](Cc1ccccc1)C(=O)NCC(=O)N1CCC[C@H]1C(=O)N[C@@H](CCC(=O)O)C(=O)N[C@H](C(=O)N1CCC[C@H]1C(N)=O)[C@@H](C)O` [pCT] (H-CSNLSTCVLSAYWRNLNNFHRFSGMGFGPETP-NH2; disulfide 1-7): the Emax on hCTR W361A (setting [1]) stood at 76 ± 6%; at hCTR P363A, 39 ± 2%; at hCTR C289A, 38 ± 4%; on hCTR R281A it was 147 ± 16%; on hCTR N365A it was 95 ± 5%. Also, the EC50 (usually the midpoint of the concentration-response curve) on hCTR W361A (setting [2]) was 6.31 nM; on hCTR P363A (setting [3]) it was 5.75 nM; at hCTR C289A (setting [3]), 4.27 nM; on hCTR R281A, 0.646 nM; at hCTR N365A, 0.0316 nM.
For `CC(C)C[C@H](NC(=O)[C@H](CC(N)=O)NC(=O)[C@H](CC(N)=O)NC(=O)[C@H](CO)NC(=O)[C@H](CO)NC(=O)[C@H](CCCNC(=N)N)NC(=O)[C@@H](NC(=O)[C@H](CC(C)C)NC(=O)[C@H](Cc1ccccc1)NC(=O)[C@H](CC(N)=O)NC(=O)[C@H](C)NC(=O)[C@H](CC(C)C)NC(=O)[C@H](CCCNC(=N)N)NC(=O)[C@H](CCC(N)=O)NC(=O)[C@@H](NC(=O)[C@H](C)NC(=O)[C@@H]1CSSC[C@H](NC(=O)[C@@H](N)CCCCN)C(=O)N[C@@H](CC(N)=O)C(=O)N[C@@H]([C@@H](C)O)C(=O)N[C@@H](C)C(=O)N[C@@H]([C@@H](C)O)C(=O)N1)[C@@H](C)O)C(C)C)C(=O)NCC(=O)N1CCC[C@H]1C(=O)N[C@H](C(=O)N[C@@H](CC(C)C)C(=O)N1CCC[C@H]1C(=O)N1CCC[C@H]1C(=O)N[C@H](C(=O)N[C@@H](CC(N)=O)C(=O)N[C@H](C(=O)NCC(=O)N[C@@H](CO)C(=O)N[C@@H](CC(N)=O)C(=O)N[C@H](C(=O)N[C@@H](Cc1ccc(O)cc1)C(N)=O)[C@@H](C)O)C(C)C)[C@@H](C)O)C(C)C` [rAmy], the Emax at hCTR W361A was 42 ± 9%; on hCTR P363A, 28 ± 9%; at hCTR R281A it was 63 ± 14%; on hCTR N365A it was 72 ± 8%.
Turning to `CC(C)C[C@H](NC(=O)CNC(=O)[C@H](C)NC(=O)[C@H](CC(C)C)NC(=O)[C@H](CCCNC(=N)N)NC(=O)[C@H](Cc1cnc[nH]1)NC(=O)[C@@H](NC(=O)[C@@H](NC(=O)[C@@H]1CSSC[C@H](NC(=O)[C@H](C)N)C(=O)N[C@@H](CC(=O)O)C(=O)N[C@@H]([C@@H](C)O)C(=O)N[C@@H](C)C(=O)N[C@@H]([C@@H](C)O)C(=O)N1)C(C)C)[C@@H](C)O)C(=O)N[C@@H](CC(C)C)C(=O)N[C@@H](CO)C(=O)N[C@@H](CCCNC(=N)N)C(=O)N[C@@H](CO)C(=O)NCC(=O)NCC(=O)N[C@H](C(=O)N[C@H](C(=O)N[C@@H](CCCCN)C(=O)N[C@@H](CC(N)=O)C(=O)N[C@@H](CC(N)=O)C(=O)N[C@@H](Cc1ccccc1)C(=O)N[C@H](C(=O)N1CCC[C@H]1C(=O)N[C@H](C(=O)N[C@@H](CC(N)=O)C(=O)N[C@H](C(=O)NCC(=O)N[C@@H](CO)C(=O)N[C@@H](CCCCN)C(=O)N[C@@H](C)C(=O)N[C@@H](Cc1ccccc1)C(N)=O)C(C)C)[C@@H](C)O)C(C)C)C(C)C)C(C)C` [hαCGRP], the maximum response (Emax) at hCTR W361A (setting [1]) is 49 ± 8%; at hCTR R281A, 114 ± 25%; at hCTR N365A, 111 ± 13%. Besides, the EC50 is 117 nM on hCTR W361A (setting [2]), 38.9 nM at hCTR R281A and 15.5 nM on hCTR N365A.
